System: LLC1 lung carcinoma
Experiment: LLC1 tumor model in WT mice
Type: in vivo
Description: FIG. 6: Usp22 inhibitor administration enhances antitumor immunity. A, Structure of compound CS30 (Usp22i-S02). B, FOXP3 MFI in WT and 22KO of Treg cells after treatment with 20 mg/kg of Usp22i-S02 in vivo (n=3). C, Representative flow cytometry plot of FOXP3+CD25+ MFI of CD4+ peripheral cells of mice treated with 20 mg/kg of Usp22i-S02 relative to control (n=5). D, Graphical representation of Foxp3 MFI upon Usp22i-S02 administration (n=5). E, Tumor growth curve of LLC1 cells subcutaneously injected in the flank of WT mice with or without the addition of 20 mg/kg/time of the Usp22 inhibitor starting at day 15, in 100 μL of oil (n=4). F-G, Representative flow cytometry plot and graphical representation of % infiltration of CD4+ and CD8+ T cells within the tumor (n=4). H, Representative histogram plot and graphical representation of itTreg Foxp3 MFI (n=4). I, MFI of itTreg suppressive markers (n=3-4). J, Percent Foxp3+IFNg+ itTreg cells in control and Usp22-S02 treated mice (n=3-4). B, D-E, G, H-I Two-way ANOVA with multiple comparisons between rows was performed to determine statistical significance. J, Unpaired two tailed T test was performed to determine significance. All data are presented as mean±stdev. NS, not significant. *P<0.05, **P<0.01, ***P<0.001, ****P<0.0001.
FIG. 16: Usp22i-S02 has little effect on naïve mice, yet enhances anti-tumor immunity in LLC1-challenged mice. A, Body weight of Usp22i-S02 treated mice verses DMSO treated controls over the course of treatment (n=4). A-F. Injections were twice a day for 3 consecutive days at 10 mg/kg (n=4). B, Percent of cell populations in naïve mice treated with Usp22i-S02 relative to DMSO control (n=3-4). C, Percent of KI-67+ cells in various compartments in naïve mice treated with Usp22i-S02 relative to DMSO control (n=3-4). D, Percent CD44^hiCD62L^10 in T cell populations gated on CD45+ cells in naïve mice treated with Usp22i-S02 relative to DMSO control (n=3). E, Percent Annexin+PI+ T cells gates on CD45+ cells in naïve mice treated with Usp22i-S02 relative to DMSO control (n=4). […]

## N#Cc1c2c(c(Nc3ccccc3)n3c1nc1ccccc13)CCCC2 [Chemical S02, 11-anilino-7,8,9,10-tetrahydro-benzimidazo [1,2-b] isoquinoline-6-carbonitrile]
LLC1 tumors, not splenic
  intratumoral Foxp3+ Treg percentage: significantly decreased
Established LLC1 tumors
  Teff cell tumor infiltration: significant increase in Teff cell tumor infiltration
Established LLC1 tumors, 20 mg/kg/time vs untreated
  tumor rejection: striking tumor rejection
